Data taken from article PMC5418314, “First-in-human phase I study of SOR-C13, a TRPV6 calcium channel inhibitor, in patients with advanced solid tumors” (Investigational New Drugs, 2017).
Like-named read-outs stand apart in the source and are kept apart here. Ends that are not written are not given here.

Key:
[1] = Phase I plasma pharmacokinetics; format: in vivo, human; settings: human, plasma, iv, 90-min IV infusion, plasma LC-MS
Procedure: Blood samples were taken on Days 1, 3, 8 and 10 of Cycle 1 to assess the pharmacokinetic (PK) profile of SOR-C13 at the various doses used. Plasma samples for the IV 20 min infusion were taken at pre-infusion, 5, 15 min after the start of infusion and post-infusion at 2, 5, 10 and 30 min and 1, 4 h. Plasma samples for SOR-C13 analysis for the 90 min infusion were taken pre-infusion, at 5, 15 and 45 min after the start of infusion, and at 2, 5, 10 and 30 min post-infusion. Since the infusion for the majority of patients, and further studies will be IV 90 min only PK data for this infusion time are presented. Validated liquid chromatography-mass spectrometry analysis provided the plasma concentration/time data.

[2] = test system: voltage-gated sodium channels; assay: voltage-gated sodium channel activity; format: biochemical
[3] = test system: voltage-gated potassium channels; assay: voltage-gated potassium channel activity; format: biochemical
[4] = GLP toxicology study, daily IV bolus for 28 days, rat; format: in vivo
Procedure: Anatomical pathology provided a No Observable Adverse Effect Level (NOAEL) of 200 mg/kg/day for rats. […] With results indicating antitumor activity in animal studies, a small toxicological footprint, a novel oncology target and a mechanism of action supported by the literature, SOR-C13 was formulated for intravenous injection (IV) for clinical evaluation. Here we present results of the ‘first-in-human’, Phase I clinical study evaluating SOR-C13 in adults with advanced solid tumors of epithelial origin refractory to all standard-of-care treatments.

[5] = half-life in the blood compartment, rat; format: in vivo

KEFLHPSKVDLPR [SOR-C13]
Tmax ([1]; 2.75 mg/kg, Cohort 4: 2.75 mg/kg, N = 6, Cycle 1 Day 10, read-out: Time to peak plasma concentration, Median): 30 min
AUC(0-t) ([1]; 4.13 mg/kg, Cohort 5: 4.13 mg/kg, N = 3, Cycle 1 Day 1, read-out: AUCtau, Mean (SD)): 78.4 ng·h/mL
AUC(0-t) ([1]; 4.13 mg/kg, Cohort 5: 4.13 mg/kg, N = 3, Cycle 1 Day 1, read-out: AUCtau, Median): 23.4 ng·h/mL
Cmax ([1]; 4.13 mg/kg, Cohort 5: 4.13 mg/kg, N = 3, Cycle 1 Day 1, read-out: Peak plasma concentration, Mean (SD)): 139 ng/mL
Cmax ([1]; 4.13 mg/kg, Cohort 5: 4.13 mg/kg, N = 3, Cycle 1 Day 1, read-out: Peak plasma concentration, Median): 42 ng/mL
Tmax ([1]; 4.13 mg/kg, Cohort 5: 4.13 mg/kg, N = 3, Cycle 1 Day 1, read-out: Time to peak plasma concentration, Mean (SD)): 25 min
Tmax ([1]; 4.13 mg/kg, Cohort 5: 4.13 mg/kg, N = 3, Cycle 1 Day 1, read-out: Time to peak plasma concentration, Median): 15 min
AUC(0-t) ([1]; 4.13 mg/kg, Cohort 5: 4.13 mg/kg, N = 3, Cycle 1 Day 3, read-out: AUCtau, Mean (SD)): 373 ng·h/mL
AUC(0-t) ([1]; 4.13 mg/kg, Cohort 5: 4.13 mg/kg, N = 3, Cycle 1 Day 3, read-out: AUCtau, Median): 403 ng·h/mL
Cmax ([1]; 4.13 mg/kg, Cohort 5: 4.13 mg/kg, N = 3, Cycle 1 Day 3, read-out: Peak plasma concentration, Mean (SD)): 369 ng/mL
Cmax ([1]; 4.13 mg/kg, Cohort 5: 4.13 mg/kg, N = 3, Cycle 1 Day 3, read-out: Peak plasma concentration, Median): 403 ng/mL
Tmax ([1]; 4.13 mg/kg, Cohort 5: 4.13 mg/kg, N = 3, Cycle 1 Day 3, read-out: Time to peak plasma concentration, Mean (SD)): 35 min
Tmax ([1]; 4.13 mg/kg, Cohort 5: 4.13 mg/kg, N = 3, Cycle 1 Day 3, read-out: Time to peak plasma concentration, Median): 45 min
AUC(0-t) ([1]; 4.13 mg/kg, Cohort 5: 4.13 mg/kg, N = 3, Cycle 1 Day 8, read-out: AUCtau, Mean (SD)): 197 ng·h/mL
AUC(0-t) ([1]; 4.13 mg/kg, Cohort 5: 4.13 mg/kg, N = 3, Cycle 1 Day 8, read-out: AUCtau, Median): 245 ng·h/mL
Cmax ([1]; 4.13 mg/kg, Cohort 5: 4.13 mg/kg, N = 3, Cycle 1 Day 8, read-out: Peak plasma concentration, Mean (SD)): 212 ng/mL
Cmax ([1]; 4.13 mg/kg, Cohort 5: 4.13 mg/kg, N = 3, Cycle 1 Day 8, read-out: Peak plasma concentration, Median): 264 ng/mL
Tmax ([1]; 4.13 mg/kg, Cohort 5: 4.13 mg/kg, N = 3, Cycle 1 Day 8, read-out: Time to peak plasma concentration, Mean (SD)): 18.2 min
Tmax ([1]; 4.13 mg/kg, Cohort 5: 4.13 mg/kg, N = 3, Cycle 1 Day 8, read-out: Time to peak plasma concentration, Median): 4.8 min
AUC(0-t) ([1]; 4.13 mg/kg, Cohort 5: 4.13 mg/kg, N = 3, Cycle 1 Day 10, read-out: AUCtau, Mean (SD)): 273 ng·h/mL
AUC(0-t) ([1]; 4.13 mg/kg, Cohort 5: 4.13 mg/kg, N = 3, Cycle 1 Day 10, read-out: AUCtau, Median): 324 ng·h/mL
Cmax ([1]; 4.13 mg/kg, Cohort 5: 4.13 mg/kg, N = 3, Cycle 1 Day 10, read-out: Peak plasma concentration, Mean (SD)): 280 ng/mL
Cmax ([1]; 4.13 mg/kg, Cohort 5: 4.13 mg/kg, N = 3, Cycle 1 Day 10, read-out: Peak plasma concentration, Median): 295 ng/mL
Tmax ([1]; 4.13 mg/kg, Cohort 5: 4.13 mg/kg, N = 3, Cycle 1 Day 10, read-out: Time to peak plasma concentration, Mean (SD)): 21.6 min
AUC(0-t) ([1]; 6.2 mg/kg, Cohort 6: 6.2 mg/kg, N = 6, Cycle 1 Day 1, read-out: AUCtau, Mean (SD)): 1130 ng·h/mL
AUC(0-t) ([1]; 6.2 mg/kg, Cohort 6: 6.2 mg/kg, N = 6, Cycle 1 Day 1, read-out: AUCtau, Median): 570 ng·h/mL
Cmax ([1]; 6.2 mg/kg, Cohort 6: 6.2 mg/kg, N = 6, Cycle 1 Day 1, read-out: Peak plasma concentration, Mean (SD)): 1150 ng/mL
Cmax ([1]; 6.2 mg/kg, Cohort 6: 6.2 mg/kg, N = 6, Cycle 1 Day 1, read-out: Peak plasma concentration, Median): 682 ng/mL
Tmax ([1]; 6.2 mg/kg, Cohort 6: 6.2 mg/kg, N = 6, Cycle 1 Day 1, read-out: Time to peak plasma concentration, Mean (SD)): 56.6 min
AUC(0-t) ([1]; 6.2 mg/kg, Cohort 6: 6.2 mg/kg, N = 6, Cycle 1 Day 3, read-out: AUCtau, Mean (SD)): 1100 ng·h/mL
AUC(0-t) ([1]; 6.2 mg/kg, Cohort 6: 6.2 mg/kg, N = 6, Cycle 1 Day 3, read-out: AUCtau, Median): 904 ng·h/mL
Cmax ([1]; 6.2 mg/kg, Cohort 6: 6.2 mg/kg, N = 6, Cycle 1 Day 3, read-out: Peak plasma concentration, Mean (SD)): 1020 ng/mL
Cmax ([1]; 6.2 mg/kg, Cohort 6: 6.2 mg/kg, N = 6, Cycle 1 Day 3, read-out: Peak plasma concentration, Median): 843 ng/mL
Tmax ([1]; 6.2 mg/kg, Cohort 6: 6.2 mg/kg, N = 6, Cycle 1 Day 3, read-out: Time to peak plasma concentration, Mean (SD)): 27.7 min
Tmax ([1]; 6.2 mg/kg, Cohort 6: 6.2 mg/kg, N = 6, Cycle 1 Day 3, read-out: Time to peak plasma concentration, Median): 9.9 min
AUC(0-t) ([1]; 6.2 mg/kg, Cohort 6: 6.2 mg/kg, N = 6, Cycle 1 Day 8, read-out: AUCtau, Mean (SD)): 1340 ng·h/mL
AUC(0-t) ([1]; 6.2 mg/kg, Cohort 6: 6.2 mg/kg, N = 6, Cycle 1 Day 8, read-out: AUCtau, Median): 843 ng·h/mL
Cmax ([1]; 6.2 mg/kg, Cohort 6: 6.2 mg/kg, N = 6, Cycle 1 Day 8, read-out: Peak plasma concentration, Mean (SD)): 1440 ng/mL
Cmax ([1]; 6.2 mg/kg, Cohort 6: 6.2 mg/kg, N = 6, Cycle 1 Day 8, read-out: Peak plasma concentration, Median): 826 ng/mL
Tmax ([1]; 6.2 mg/kg, Cohort 6: 6.2 mg/kg, N = 6, Cycle 1 Day 8, read-out: Time to peak plasma concentration, Mean (SD)): 45.8 min
AUC(0-t) ([1]; 6.2 mg/kg, Cohort 6: 6.2 mg/kg, N = 6, Cycle 1 Day 10, read-out: AUCtau, Mean (SD)): 1430 ng·h/mL
AUC(0-t) ([1]; 6.2 mg/kg, Cohort 6: 6.2 mg/kg, N = 6, Cycle 1 Day 10, read-out: AUCtau, Median): 830 ng·h/mL
Cmax ([1]; 6.2 mg/kg, Cohort 6: 6.2 mg/kg, N = 6, Cycle 1 Day 10, read-out: Peak plasma concentration, Mean (SD)): 1380 ng/mL
Cmax ([1]; 6.2 mg/kg, Cohort 6: 6.2 mg/kg, N = 6, Cycle 1 Day 10, read-out: Peak plasma concentration, Median): 794 ng/mL
Tmax ([1]; 6.2 mg/kg, Cohort 6: 6.2 mg/kg, N = 6, Cycle 1 Day 10, read-out: Time to peak plasma concentration, Mean (SD)): 36.1 min
Tmax ([1]; 6.2 mg/kg, Cohort 6: 6.2 mg/kg, N = 6, Cycle 1 Day 10, read-out: Time to peak plasma concentration, Median): 30 min
modulation of channel activity [2]: no modulation of channel activity
modulation of channel activity [3]: no modulation of channel activity
antigenicity [4]: no antigenicity
cardiovascular toxicity [4]: no cardiovascular toxicity
toxicity [4]: minimal toxicity
half-life in the blood compartment [5]: < 5 min
